Data taken from patent US12077503B2, “Substituted cyclic amides and their use as herbicides” (FMC CORPORATION, priority 2015, dated 2024).
Read-outs that look alike come from different tables or passages of the source.

Columns and labels:
Format in all cases: in vivo
Kochia (Kochia scoparia) = test: Test A preemergence; settings: Bassia scoparia, pre-emergence, 240 h, preemergence, 0 to 100 scale where 0 is no effect and 100 is complete control, read-out: Kochia plant response rating; for pest or weed control at 125 g/ha: 125 g ai/ha, visual injury rating, approximately 10 d; for pest or weed control at 500 g/ha: 500 g ai/ha
How it was run: (§1)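 Each rating is a visual injury score from 0 to 100 given about 10 d after treatment, judged against untreated controls kept alongside in the greenhouse. In loam soil–sand blend, seeds got a preemergence directed soil spray, while postemergence plants were 2 to 10 cm tall at spraying.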

[1] = test system: giant foxtail (Setaria faberii); test: Test A postemergence; settings: Setaria faberi, post-emergence, 240 h; for pest or weed control at 125 g/ha: 125 g ai/ha, read-out: Foxtail, Giant plant response rating (0 to 100 scale); for pest or weed control at 500 g/ha: 500 g ai/ha
How it was run: as §1

[2] = test system: ryegrass, Italian (Italian ryegrass, Lolium multiflorum); test: Test A postemergence; settings: Lolium multiflorum, post-emergence, 240 h, postemergence; for pest or weed control at 125 g/ha: 125 g ai/ha, visual injury vs untreated controls after approx. 10 d, 0 = no effect, 100 = complete control, read-out: Ryegrass, Italian plant response rating (0 to 100 scale); for pest or weed control at 500 g/ha: 500 g ai/ha, 0 to 100 scale, 0 is no effect, 100 is complete control, read-out: Ryegrass, Italian plant response rating
How it was run: as §1

corn (Zea mays) = test: Test A postemergence; settings: Zea mays, post-emergence, 240 h; for plant injury at 125 g/ha: 125 g ai/ha, read-out: Corn plant response rating (0 to 100 scale); for plant injury at 500 g/ha / Corn plant response rating (crop injury, 0 = no effect, 100 = complete kill) at 500 g/ha: 500 g ai/ha; for plant injury at 500 g/ha: 0 to 100 scale, 0 is no effect, 100 is complete control, read-out: Corn plant response rating; for Corn plant response rating (crop injury, 0 = no effect, 100 = complete kill) at 500 g/ha: visual injury, 0 to 100 scale (0 no effect, 100 complete control), approx. 10 d
How it was run: as §1

[3] = test system: pigweed (Amaranthus retroflexus); test: Test A postemergence; settings: Amaranthus retroflexus, post-emergence, 240 h; for pest or weed control at 125 g/ha: 125 g ai/ha, read-out: Pigweed plant response rating (0 to 100 scale); for pest or weed control at 500 g/ha: 500 g ai/ha
How it was run: as §1

[4] = test system: ragweed (common ragweed, Ambrosia elatior); test: Test A postemergence; settings: Ambrosia artemisiifolia, post-emergence, 240 h, postemergence; for pest or weed control at 125 g/ha: 125 g ai/ha, visual injury vs untreated controls after approx. 10 d, 0 = no effect, 100 = complete control, read-out: Ragweed plant response rating (0 to 100 scale); for pest or weed control at 500 g/ha: 500 g ai/ha, 0 to 100 scale, 0 is no effect, 100 is complete control, read-out: Ragweed plant response rating
How it was run: as §1

[5] = test system: Galium (catchweed bedstraw, Galium aparine); test: Test A postemergence; settings: Galium, post-emergence, 240 h, postemergence; for pest or weed control at 125 g/ha: 125 g ai/ha, visual injury vs untreated controls after approx. 10 d, 0 = no effect, 100 = complete control, read-out: Galium plant response rating (0 to 100 scale); for pest or weed control at 500 g/ha: 500 g ai/ha, 0 to 100 scale, 0 is no effect, 100 is complete control, read-out: Galium plant response rating
How it was run: as §1

[6] = test system: blackgrass (Alopecurus myosuroides); test: Test A postemergence; settings: Alopecurus myosuroides, post-emergence, 240 h, postemergence; for pest or weed control at 125 g/ha: 125 g ai/ha, visual injury vs untreated controls after approx. 10 d, 0 = no effect, 100 = complete control, read-out: Blackgrass plant response rating (0 to 100 scale); for pest or weed control at 500 g/ha: 500 g ai/ha, 0 to 100 scale, 0 is no effect, 100 is complete control, read-out: Blackgrass plant response rating
How it was run: as §1

[7] = test system: barnyardgrass (Echinochloa crus-galli); test: Test A postemergence; settings: Echinochloa crus-galli, post-emergence, 240 h; for pest or weed control at 125 g/ha: 125 g ai/ha; for pest or weed control at 500 g/ha: 500 g ai/ha
How it was run: as §1

[8] = test system: wheat (Triticum aestivum); test: Test A postemergence; settings: Triticum aestivum, post-emergence, 240 h; for plant injury at 125 g/ha: 125 g ai/ha, read-out: Wheat plant response rating (0 to 100 scale); for plant injury at 500 g/ha: 500 g ai/ha
How it was run: as §1

[9] = test system: ducksalad (Heteranthera limosa); test: Test B flooded paddy test; settings: Heteranthera limosa, 250 g ai/ha, Flood; 0 to 100 scale where 0 is no effect and 100 is complete control; read-out: Ducksalad plant response rating
How it was run: (§2)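 Compound goes directly into floodwater once pots are flooded 3 cm above soil, targeting plants at two leaves; the water depth is then held for the test duration. Plants sit 13–15 d in a greenhouse and are rated visually, 100 denoting complete control.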

rice (Oryra sativa) = test: Test B flooded paddy test; settings: Oryza sativa, 250 g ai/ha, Flood; 0 to 100 scale where 0 is no effect and 100 is complete control; read-out: Rice plant response rating
How it was run: as §2

[10] = test system: sedge, umbrella (small-flower umbrella sedge, Cyperus difformis); test: Test B flooded paddy test; settings: Cyperus difformis, 250 g ai/ha, Flood; 0 to 100 scale where 0 is no effect and 100 is complete control; read-out: Sedge, Umbrella plant response rating
How it was run: as §2

[11] = test system: barnyardgrass (Echinochloa crus-galli); test: Test B flooded paddy test; settings: Echinochloa crus-galli, 250 g ai/ha, Flood; 0 to 100 scale where 0 is no effect and 100 is complete control; read-out: Barnyardgrass plant response rating
How it was run: as §2

[12] = postemergence, visual injury vs untreated controls after approx. 10 d, 0 = no effect, 100 = complete control
[13] = postemergence, 0 to 100 scale, 0 is no effect, 100 is complete control, read-out: Foxtail, Giant plant response rating
[14] = postemergence, 0 to 100 scale, 0 is no effect, 100 is complete control, read-out: Pigweed plant response rating
[15] = postemergence, visual injury vs untreated controls after approx. 10 d, 0 = no effect, 100 = complete control, read-out: Barnyardgrass plant response rating (0 to 100 scale)
[16] = postemergence, 0 to 100 scale, 0 is no effect, 100 is complete control, read-out: Barnyardgrass plant response rating
[17] = postemergence, 0 to 100 scale, 0 is no effect, 100 is complete control, read-out: Wheat plant response rating
[18] = Postemergence, visual rating about 10 d after treatment
[19] = Postemergence, visual injury, 0 to 100 scale (0 no effect, 100 complete control), approx. 10 d, read-out: Plant response rating, Foxtail, Giant
[20] = Postemergence, visual injury, 0 to 100 scale (0 no effect, 100 complete control), approx. 10 d, read-out: Plant response rating, Pigweed
[21] = Postemergence, visual rating about 10 d after treatment, read-out: Barnyardgrass plant response rating (0 to 100 scale, 0 no effect, 100 complete control)
[22] = Postemergence, visual injury, 0 to 100 scale (0 no effect, 100 complete control), approx. 10 d, read-out: Plant response rating, Barnyardgrass
[23] = Postemergence, visual injury, 0 to 100 scale (0 no effect, 100 complete control), approx. 10 d, read-out: Plant response rating, Wheat

Cc1ccc([C@H]2CCN(C)C(=O)[C@@H]2C(=O)Nc2ccccc2C(F)(F)F)cc1 [Compound 1219]
pest or weed control at 125 g/ha (Kochia (Kochia scoparia)): 0% | pest or weed control at 500 g/ha (Kochia (Kochia scoparia)): 0% | pest or weed control at 125 g/ha [1, 12]: 50% | pest or weed control at 500 g/ha [1, 13]: 80% | pest or weed control at 125 g/ha [2]: 0% | pest or weed control at 500 g/ha [2]: 20% | plant injury at 125 g/ha (corn (Zea mays); [12]): 0% | plant injury at 500 g/ha (corn (Zea mays); postemergence): 0% | pest or weed control at 125 g/ha [3, 12]: 0% | pest or weed control at 500 g/ha [3, 14]: 0% | pest or weed control at 125 g/ha [4]: 0% | pest or weed control at 500 g/ha [4]: 20% | pest or weed control at 125 g/ha [5]: 0% | pest or weed control at 500 g/ha [5]: 0% | pest or weed control at 125 g/ha [6]: 0% | pest or weed control at 500 g/ha [6]: 0% | pest or weed control at 125 g/ha [7, 15]: 30% | pest or weed control at 500 g/ha [7, 16]: 60% | plant injury at 125 g/ha [8, 12]: 0% | plant injury at 500 g/ha [8, 17]: 0% | pest or weed control at 250 g/ha [9]: 60% | pest or weed control at 250 g/ha (rice (Oryra sativa)): 0% | pest or weed control at 250 g/ha [10]: 40% | pest or weed control at 250 g/ha [11]: 0%

Cc1ccc([C@H]2CCN(C)C(=O)[C@@H]2C(=O)Nc2cccc(Cl)c2F)cc1 [Compound 1223]
pest or weed control at 125 g/ha (Kochia (Kochia scoparia)): 0% | pest or weed control at 500 g/ha (Kochia (Kochia scoparia)): 20% | pest or weed control at 125 g/ha [1, 12]: 90% | pest or weed control at 500 g/ha [1, 13]: 90% | pest or weed control at 125 g/ha [2]: 20% | pest or weed control at 500 g/ha [2]: 60% | plant injury at 125 g/ha (corn (Zea mays); [12]): 0% | plant injury at 500 g/ha (corn (Zea mays); postemergence): 0% | pest or weed control at 125 g/ha [3, 12]: 0% | pest or weed control at 500 g/ha [3, 14]: 0% | pest or weed control at 125 g/ha [4]: 0% | pest or weed control at 500 g/ha [4]: 20% | pest or weed control at 125 g/ha [5]: 20% | pest or weed control at 500 g/ha [5]: 40% | pest or weed control at 125 g/ha [6]: 30% | pest or weed control at 500 g/ha [6]: 50% | pest or weed control at 125 g/ha [7, 15]: 30% | pest or weed control at 500 g/ha [7, 16]: 50% | plant injury at 125 g/ha [8, 12]: 0% | plant injury at 500 g/ha [8, 17]: 30% | pest or weed control at 250 g/ha [9]: 90% | pest or weed control at 250 g/ha (rice (Oryra sativa)): 30% | pest or weed control at 250 g/ha [10]: 0% | pest or weed control at 250 g/ha [11]: 80%

O=C1NCC(c2ccccc2)C1C(=O)Nc1cc(F)ccc1F (centres unmarked) [Compound 1359]
pest or weed control at 125 g/ha [1, 18]: 0% | pest or weed control at 500 g/ha [1, 19]: 0% | plant injury at 125 g/ha (corn (Zea mays); [18]): 0% | Corn plant response rating (crop injury, 0 = no effect, 100 = complete kill) at 500 g/ha (corn (Zea mays); Postemergence): 0% | pest or weed control at 125 g/ha [3, 18]: 0% | pest or weed control at 500 g/ha [3, 20]: 0% | pest or weed control at 125 g/ha [7, 21]: 0% | pest or weed control at 500 g/ha [7, 22]: 0% | plant injury at 125 g/ha [8, 18]: 0% | plant injury at 500 g/ha [8, 23]: 0%

O=C1NCC(c2ccccc2)C1C(=O)Nc1ccc(C(F)(F)F)cc1 (centres unmarked) [Compound 1362]
pest or weed control at 125 g/ha [1, 18]: 0% | pest or weed control at 500 g/ha [1, 19]: 0% | plant injury at 125 g/ha (corn (Zea mays); [18]): 0% | Corn plant response rating (crop injury, 0 = no effect, 100 = complete kill) at 500 g/ha (corn (Zea mays); Postemergence): 0% | pest or weed control at 125 g/ha [3, 18]: 0% | pest or weed control at 500 g/ha [3, 20]: 0% | pest or weed control at 125 g/ha [7, 21]: 0% | pest or weed control at 500 g/ha [7, 22]: 0% | plant injury at 125 g/ha [8, 18]: 0% | plant injury at 500 g/ha [8, 23]: 0%
